Laboratory results: PMC12737779, “Concurrent Assessment of Synthetic and Natural Compounds on the Proliferation of Toxoplasma gondii in In Vitro Models” (Tropical Medicine and Infectious Disease, 2025)
pIC50: −log10 of the molar value.

What was measured:
[1] = Cytotoxicity in Vero cells by Alamar Blue assay; format: cell-based, African green monkey; conditions: African green monkey
Description: (§1) The Vero cell line was seeded in 96-well plates at approximately 20,000 cells per well until approximately 100% confluence was reached. […] All compounds were evaluated at elevated concentrations, diluted in 1% DMSO, to determine the maximum concentration at which they could remain in solution for experimental purposes. It was observed that most compounds were not fully soluble at 320 µM. […] Consequently, all further experiments were initiated from this concentration. […] Four hours later, fluorescence was measured using a BioTek Synergy HTX plate reader at 530/25 nm excitation and 590/25 nm emission. […] A color change in the growth control well to pink indicated proper cell growth, and no color change in the sterile control well indicated the absence of contaminants. The normalized viability percentages (Y-values) of viable host cells and viable T. gondii GFP RH tachyzoites were calculated from the mean ± standard deviation for each concentration evaluated in triplicate. The concentration values (X-axis) were subjected to logarithmic transformation to fit the data to a sigmoidal curve. The half-maximal cytotoxic concentration (CC50) was estimated as the interpolated concentration value on the X-axis corresponding to the response midway between the fitted top and bottom plateaus of the curve. Similarly, the half-maximal inhibitory concentration (IC50) was determined as the concentration at which the response was halfway between the top and the bottom plateaus. Data analysis and visualization were conducted using GraphPad Prism version 8.4.3 (GraphPad Software, San Diego, CA, USA). The selectivity index, also known as the Therapeutic Index, was calculated using the formula: SI = CC50/IC50.

[2] = test system: T. gondii RH GFP tachyzoites; experiment: T. gondii RH GFP tachyzoite viability assay, 72 h continuous exposure; format: cell-based, Toxoplasma gondii; conditions: for SI: CC50/IC50, 72 h continuous exposure; for pIC50: 72 h continuous exposure, GFP tachyzoite viability in Vero cells
Description: Approximately 10,000 tachyzoites of the T. gondii RH GFP strain were quantified using a hemocytometer and subsequently inoculated into Vero cells at full confluence per well in a 96-well plate using a medium conducive to parasite maintenance. Following our laboratory protocols and the methodologies outlined in previous studies, we routinely utilize an inoculum of 10,000 parasites for the Toxoplasma gondii RH-GFP tachyzoite viability assay, which is conducted over a 72 h duration. This parasite density ensures reliable detection of tachyzoite growth and viability while minimizing the likelihood of detachment or any degree of disruption to the host cell monolayer. Concurrently, derivatives of pyrazoline, pyrazole, and thiazolidinone nucleus compounds were introduced at […], with 1:2 dilutions commencing at 160 μM and decreasing to a minimum concentration of 1.25 μM in triplicate. The controls employed in this experiment included non-infected cells (NC), 10 μM pyrimethamine (Pyr), 1% dimethyl sulfoxide (DMSO), and infected cells without treatment (IC). Seventy-two hours post-infection, each well in the 96-well plate was examined using a 10× objective on the EVOS FL Color Imaging System with the GFP fluorescent light cube, and images were captured approximately at the center of each well. The parasites that glowed green were considered viable, and the percentage of tachyzoite viability was compared with that of the untreated parasites. Subsequently, images were recorded, contrast was adjusted, and a semiquantitative digital analysis was conducted using ImageJ v1.54d and the triangle auto-threshold method to determine the number of viable GFP fluorescent tachyzoites per image, as previously described. The percentage of viable parasites was calculated using the formula: Fluorescence of the sample with treatment URF × 100/fluorescence of the control without treatment, where URF = unit relatives of fluorescence calculated with the formula: (sample fluorescence/fluorescence in blank well) × 100.
(§2) The normalized viability percentages (Y-values) of viable host cells and viable T. gondii GFP RH tachyzoites were calculated from the mean ± standard deviation for each concentration evaluated in triplicate. The concentration values (X-axis) were subjected to logarithmic transformation to fit the data to a sigmoidal curve. The half-maximal cytotoxic concentration (CC50) was estimated as the interpolated concentration value on the X-axis corresponding to the response midway between the fitted top and bottom plateaus of the curve. Similarly, the half-maximal inhibitory concentration (IC50) was determined as the concentration at which the response was halfway between the top and the bottom plateaus. Data analysis and visualization were conducted using GraphPad Prism version 8.4.3 (GraphPad Software, San Diego, CA, USA). The selectivity index, also known as the Therapeutic Index, was calculated using the formula: SI = CC50/IC50.

[3] = test system: T. gondii RH GFP tachyzoites; experiment: T. gondii RH GFP tachyzoite viability following 24 h pretreatment of host cells; format: cell-based, Toxoplasma gondii; conditions: for Host Cell Pre-Treatment SI: CC50/IC50, host cell pre-treatment; for pIC50: Vero cells pretreated 24 h, read 72 h post-infection, read-out: Host Cell Pre-Treatment IC50
Description: Subsequently, 10,000 T. gondii RH GFP tachyzoites were introduced into each well. The experimental controls included non-infected cells (NC), 10 μM pyrimethamine (Pyr), 1% dimethyl sulfoxide (DMSO), and infected cells without treatment (IC). After 24 h of host cell treatment, the medium was replaced with a compound-free medium for parasite maintenance. Seventy-two hours post-infection, each well of the 96-well plate was examined using a 10× objective on an Evos FL Auto Cell Imaging System microscope (Life Technologies, Carlsbad, CA, USA). A semiquantitative digital analysis was conducted using ImageJ v1.54d and the triangle auto-threshold method to quantify the number of viable GFP fluorescent tachyzoites per image, as previously described.
as §2

[4] = test system: T. gondii RH GFP tachyzoites; experiment: T. gondii RH GFP tachyzoite viability following 3 h pretreatment of parasites; format: cell-based, Toxoplasma gondii; conditions: for Tachyzoite Pre-Treatment SI: CC50/IC50, tachyzoite pre-treatment; for pIC50: read-out: Tachyzoite Pre-Treatment IC50
Description: Following treatment, tachyzoites were centrifuged at 712× g for 10 min, and the supernatant was discarded. Fresh medium devoid of compounds was then added to resuspend the parasites. Subsequently, 10,000 pretreated T. gondii RH GFP tachyzoites were introduced into each well of a 96-well plate containing Vero cells at 100% confluence. Seventy-two hours post-infection, each well of the 96-well plate was examined using a 10× objective on an EVOS microscope. Semiquantitative digital analysis was performed using ImageJ v1.54d, employing the triangle auto-threshold method to quantify the number of viable GFP fluorescent tachyzoites per image, as previously described.
as §2

[5] = test system: Vero cells; experiment: Cytotoxicity in Vero cells by Alamar Blue assay; format: cell-based, African green monkey; conditions: 24 h
Description: as §1

[6] = Toxoplasma gondii, tachyzoites pretreated 3 h, read 72 h post-infection
[7] = tachyzoites pretreated 3 h, read 72 h post-infection

Structure (SMILES) | CC50 at 24 h [1] [µM] | SI [2] | pIC50 ([2]; Toxoplasma gondii) | Host Cell Pre-Treatment SI [3] | pIC50 ([3]; Toxoplasma gondii) | Tachyzoite Pre-Treatment SI [4] | pIC50 [4, 6] | CC50 [5] [µM] | pIC50 [2] | pIC50 [3] | pIC50 [4, 7] | pIC50 ([4]; Toxoplasma gondii)
CC(=N/O)/C(C)=N\N=C1\NC(=O)/C(=C/c2cc3ccccc3[nH]c2=O)S1 [Compound 15] | > 160 | >16.8 | 5.02 | >2.9 | 4.26 | >39.7 | 5.40 | – | – | – | – | –
COc1ccc(C2CC(c3ccc(O)c(OC)c3)=NN2)cc1 (stereo not shown) [Compound 3] | – | >8.3 | – | – | – | – | – | > 160 | 4.74 | – | – | –
COc1cc(C2=NNC(c3ccc4c(c3)OCO4)C2)ccc1O (stereo not shown) [Compound 4] | – | 42.6 | – | 28.9 | – | 4.8 | – | 154 | – | 5.28 | 4.50 | –
CCc1nc(N)nc(N)c1-c1ccc(Cl)cc1 [Pyrimethamine, pyrimethamine, reference compound] | > 200 | >666 | 6.52 | >190 | 6.00 | >32.4 | – | – | – | – | – | 5.21
COc1cc(C2=NNC(c3ccc(F)cc3)C2)ccc1O (stereo not shown) [Compound 1] | – | 19.6 | – | 17.5 | – | 5.6 | – | 132 | 5.17 | 5.12 | 4.63 | –
CC(=N/O)/C(C)=N\N=C1/NC(=O)/C(=C/c2ccc(O)c(O)c2)S1 [Compound 13] | – | >18.1 | – | >0.6 | – | >8.0 | – | > 160 | 5.06 | – | 4.70 | –
CC(C)(C)n1nc(-c2c[nH]c3ccccc23)c(C#N)c1-c1ccc(Br)cc1 [Compound 8] | – | >7.6 | – | – | – | – | – | > 160 | 4.68 | – | – | –
CC(=N/O)/C(C)=N\N=C1/NC(=O)/C(=C/c2ccc(Cl)cc2)S1 [Compound 14] | – | >1.1 | – | – | – | – | – | > 160 | 3.85 | – | – | –
COc1ccc(C=C2SC(=NN=C(C)C(C)=NO)NC2=O)cc1 [Compound 12] | – | 10.2 | – | 3.8 | – | 6.9 | – | 40.3 | 5.41 | 4.98 | 5.24 | –
CC(=N/O)/C(C)=N\N=C1/NC(=O)/C(=C/c2ccc(C#N)cc2)S1 [Compound 11] | 53.2 | 14.5 | 5.44 | 2.3 | 4.65 | 1.8 | 4.53 | – | – | – | – | –
CC(=NO)C(C)=NN=C1NC(=O)/C(=C/c2ccccc2O)S1 [Compound 9] | > 160 | >25.9 | 5.21 | >14.9 | 4.97 | >164.9 | 6.05 | – | – | – | – | –
CC(=NO)C(C)=NN=C1NC(=O)C(=Cc2ccc(O)cc2)S1 [Compound 10] | – | 10.6 | – | 3.9 | – | 12.4 | – | 61.2 | 5.24 | 4.81 | 5.31 | –
CC(C)(C)n1nc(-c2c[nH]c3ccccc23)c(C#N)c1-c1c(Cl)cccc1Cl [Compound 5] | – | >11.4 | – | – | – | – | – | > 160 | 4.85 | – | – | –
COc1cc(C2=NNC(c3ccc(Cl)cc3)C2)ccc1O (stereo not shown) [Compound 2] | – | 73.3 | – | 16.4 | – | 18.6 | – | 123 | – | 5.12 | 5.18 | –
